Measured values as given in paper PMC4810358, “Applicability of the Rayleigh equation for enantioselective metabolism of chiral xenobiotics by microsomes, hepatocytes and in-vivo retention in rabbit tissues” (Scientific Reports, 2016).
Values joined by “and” are separate entries in the source; they are usually repeats but may differ in a detail not shown here. Equal entries are not always repeated. Where two headings read alike, the source gives them in different places.

Tests used:
[1] = de-methylation (enantioselective degradation) by human liver microsomes; conditions: HLM; for Overall first order kinetic constant, kc: racemate, 37 °C, 0–120 min; for Enantiomeric enrichment factor, εER: mean ± 95% confidence interval of Rayleigh slope, n = 3, NE = no enrichment
Method: (§1) The reactions were initiated by the addition of 120 μl NADPH-regenerating system (100 μL of solution A and 20 μL of solution B) that were added after a 3-min pre-incubation of the incubation mixtures containing 10 μl of substrate (1 g/L), 50 μl human/rat hepatic microsomes (20 mg protein/ml) and […] sodium phosphate buffer, 0.1 M pH 7.4 final volume was 500 μl. The reactions were stopped at time intervals by cooling on ice and addition of 100 μl acetonitrile followed by the addition of 20 μL internal standards stock solution (0.1 g/L). After termination of the reaction 200 microliter sodium carbonate solution (1 M, pH 12) was added and samples were then vigorously shaken for 1 min and consequently extracted into 6 ml n-hexane/acetonitrile (98/2 vol/vol) using an Intelli mixer on 50 rpm for 5 min. after centrifugation for 10 min (6,000 rpm) the upper organic layer was collected and the procedure was repeated. The samples were eventually evaporated till dry under a gentle stream of nitrogen. The residue was dissolved in 200 microliter methanol and analyzed by HPLC-MS. These degradation studies were done in duplicates.
(§2) Control assays were run under the same conditions, with 200 μL insect control supersomes (5 mg protein/ml) used as a negative control, i.e containing no CYP450 but the same protein content (cytochrome b5), while 10 μl of Verapamil (1 g/L) and 50 μl human microsomes (20 mg protein/ml) was incubated for 30 min as a positive control.
(§3) The chiral separation method was based on methodology of Begnall et al.[62]. […] For all separations the column and autosampler were maintained at 25 °C, with an optimal chromatographic run time of 24 minutes, the injection volume was 10 μL. QTOF mass spectrometer equipped with an electrospray ionization source (Agilent G3251A Dual ESI) was used for chiral drug identification and quantification. Analysis was performed in positive mode with a capillary voltage potential of 4000 V; the nebulizer gas pressure was set to 40 psi and drying gas flow was 10 L/min, with a drying gas temperature of 300 °C. The fragmentor voltage was set at 140 V, and skimmer voltage was 65 V. Scan range was 50–1000 m/z, the other MS parameters remained at auto-tune conditions.
(§4) The enantiomeric ratios were expressed as the ER – the peak area of one enantiomer (the more abundant) divided by that of the other enantiomer.

[2] = de-methylation (enantioselective degradation) by Lewis rat liver microsomes; type: in vitro ADME; conditions: RLM-L; for Overall first order kinetic constant, kc: racemate, 37 °C, 0–120 min; for Enantiomeric enrichment factor, εER: mean ± 95% confidence interval of Rayleigh slope, n = 3, NE = no enrichment
Method: as §1, §2, §3, §4

[3] = de-methylation (enantioselective degradation) by Wistar Han rat liver microsomes; type: in vitro ADME; conditions: RLM-W; for Overall first order kinetic constant, kc: racemate, 37 °C, 0–120 min; for Enantiomeric enrichment factor, εER: mean ± 95% confidence interval of Rayleigh slope, n = 3, NE = no enrichment
Method: as §1, §2, §3, §4

[4] = de-methylation (enantioselective degradation) by Sprague Dawley rat liver microsomes; type: in vitro ADME; conditions: RLM-SD; for Overall first order kinetic constant, kc: racemate, 37 °C, 0–120 min; for Enantiomeric enrichment factor, εER: mean ± 95% confidence interval of Rayleigh slope, n = 3, NE = no enrichment
Method: as §1, §2, §3, §4

[5] = de-methylation by liver microsomes, statements pooled over all microsome sources; type: in vitro ADME, human and rat; conditions: through all the incubations with the various microsomes
Method: as §1, with “The samples were eventually evaporated till dry under a gentle stream of nitrogen.” left out, “These degradation studies were done in duplicates.” left out
The chiral separation method was based on methodology of Begnall et al.[62]. […] QTOF mass spectrometer equipped with an electrospray ionization source (Agilent G3251A Dual ESI) was used for chiral drug identification and quantification. […]
as §4

[6] = cited from earlier work; for first order half-life: hepatocytes from male Sprague-Dawley rats; for individual first order rate constant: myclobutanil, hepatocytes from male Sprague–Dawley rats
[7] = set-up: method as in PMID 24027055; conditions: male Sprague–Dawley rat liver microsomes; cited from earlier work
[8] = set-up: method as in PMID 25820472; conditions: rat liver microsomes; cited from earlier work
[9] = stereoselective degradation of metalaxyl in hepatic microsomes (Zhang et al.); type: in vitro ADME, rat and rabbit; conditions: for individual degradation constant: calculated from concentration-time data of Fig. 3a in ref 22, R^2 = 0.98
Method: (§5) In addition to the microsome studies, the Rayleigh equation was fitted to reported studies on biodegradation of chiral compounds using liver microsomes and hepatocytes for which there was sufficient data available. We focused on studies published on years 2011–2015 that reported on first order kinetics and/or provided concentration - time profiles of the individual enantiomers after incubation of the racemate with the metabolizer, i.e. systems analyzed by approach II in the introduction.

[10] = hepatic microsomes; cited from earlier work
[11] = loach liver microsomes; cited from earlier work
[12] = enantioselective metabolism in rat hepatocytes (reported studies); type: in vitro ADME
Method: as §5
Wang et al.[24] studied the enantioselective metabolism of the fungicide hexaconazole as well, they used male Sprague–Dawley rat hepatocytes. […] In a second test case, Wang et al.[52] studied the degradation of the fungicide myclobutanil in hepatocytes from male Sprague–Dawley rats.

[13] = in vivo enantioselective behaviour in rabbit plasma and tissues after intravenous racemate (Sun et al.)
Source text: For example, Sun et al.[26] have reviewed the enantioselective behavior of the fungicide myclobutanil enantiomers in variant rabbit tissues following intravenous administration of the racemic fungicide. Using the plasma concentration-time curves of the two enantiomers (presented in Fig. 1A in ref. [26]) we obtained the enantiomeric enrichment factor of −28 ± 5 (R^2 = 0.97). Analysis of the distribution of myclobutanil in various tissues, presented in Fig. 3 in ref. [26], obtained the enantiomeric enrichment factors of −33 ± 16 (R^2 = 0.92) for the liver, −20 ± 6 (R^2 = 0.97) for the brain, −32 ± 16 (R^2 = 0.89) for the kidney and −21 ± 6 (R^2 = 0.97) for the muscle. […] This quantitative ranking is obscured by the large number of time trace data points in the original presentation. Another example can be presented by the study of Kong et al.[25] reporting on the stereoselective metabolism of the alpha blocker doxazosin (DOX) in vivo in male Sprague–Dawley rats.

SMILES: CN(C)CCCC1(c2ccc(F)cc2)OCc2cc(C#N)ccc21 (racemic) [CTM, (R,S)-citalopram]
- Overall first order kinetic constant, kc [1]: 0.007 min⁻¹
- Enantiomeric enrichment factor, εER [1]: −36 ± 3 (0.95) %
- Overall first order kinetic constant, kc [2]: 0.007 min⁻¹
- Overall first order kinetic constant, kc [3]: 0.07 min⁻¹
- Enantiomeric enrichment factor, εER [3]: −53 ± 3 (0.95) %
- Overall first order kinetic constant, kc [4]: 0.02 min⁻¹
- Enantiomeric enrichment factor, εER [4]: −10 ± 4 (0.92) %

SMILES: CNCCC(Oc1ccc(C(F)(F)F)cc1)c1ccccc1 (racemic) [FLX, (R,S)-fluoxetine]
- Overall first order kinetic constant, kc [1]: 0.01 min⁻¹
- Overall first order kinetic constant, kc [2]: 0.04 min⁻¹
- Overall first order kinetic constant, kc [3]: 0.06 min⁻¹
- Overall first order kinetic constant, kc [4]: 0.02 min⁻¹

SMILES: CN1CCN2c3ccccc3Cc3ccccc3C2C1 (racemic) [MNS, (R,S)-mianserin]
- Overall first order kinetic constant, kc [1]: 0.004 min⁻¹
- Enantiomeric enrichment factor, εER [1]: −237 ± 29% and −237 ± 29 (0.92) %
- Overall first order kinetic constant, kc [2]: 0.03 min⁻¹
- Enantiomeric enrichment factor, εER [2]: −53 ± 12 (0.98) %
- Overall first order kinetic constant, kc [3]: 0.008 min⁻¹
- Enantiomeric enrichment factor, εER [3]: −38 ± 5 (0.92) %
- Overall first order kinetic constant, kc [4]: 0.02 min⁻¹
- Enantiomeric enrichment factor, εER [4]: −11 ± 6 (0.92) %

SMILES: CN(C)CC(c1ccc(O)cc1)C1(O)CCCCC1 (racemic) [O-DMV, (R,S)-O-desmethylvanlafaxine]
- Overall first order kinetic constant, kc [1]: 0.025 min⁻¹
- Enantiomeric enrichment factor, εER [1]: −7 ± 1 (0.98) %
- Overall first order kinetic constant, kc [2]: 0.007 min⁻¹
- Enantiomeric enrichment factor, εER [2]: −59 ± 2 (0.94) %
- Overall first order kinetic constant, kc [3]: 0.02 min⁻¹
- Enantiomeric enrichment factor, εER [3]: −4 ± 1% and −4 ± 1 (0.91) %
- Overall first order kinetic constant, kc [4]: 0.009 min⁻¹
- Enantiomeric enrichment factor, εER [4]: −9 ± 1 (0.96) %

SMILES: COc1ccc(C(CN(C)C)C2(O)CCCCC2)cc1 (racemic) [VNF, (R,S)-venlafaxine]
- Overall first order kinetic constant, kc [1]: 0.01 min⁻¹
- enantiomeric ratio, ER [5]: 1.1 ± 0.08
- Overall first order kinetic constant, kc [2]: 0.009 min⁻¹
- Overall first order kinetic constant, kc [3]: 0.05 min⁻¹
- Overall first order kinetic constant, kc [4]: 0.03 min⁻¹

SMILES: CCOC1Oc2ccc(OS(C)(=O)=O)cc2C1(C)C (single isomer, unassigned; (+)) [(+) ETO]
- first order half-life ([6]; ethofumesate): 120 min

SMILES: CCCCCCC(C)OC(=O)COc1nc(F)c(Cl)c(N)c1Cl (single isomer, unassigned; (+)) [(+) FPMH]
- first order half-life ([6]; fluroxypyr methylheptyl ester): 5.1 min

SMILES: CCCCC(O)(Cn1cncn1)c1ccc(Cl)cc1Cl (single isomer, unassigned; (+)) [(+)-hexaconazole]
- individual first order degradation rate constant [7]: 0.09324 min⁻¹

SMILES: CCCCC(C#N)(Cn1cncn1)c1ccc(Cl)cc1 (single isomer, unassigned; (+)) [(+)-myclobutanil]
- individual first order rate constant [6]: 0.065 h⁻¹

SMILES: CCOC1Oc2ccc(OS(C)(=O)=O)cc2C1(C)C (single isomer, unassigned; (-)) [(−) ETO]
- first order half-life ([6]; ethofumesate): 246 min

SMILES: CCCCCCC(C)OC(=O)COc1nc(F)c(Cl)c(N)c1Cl (single isomer, unassigned; (-)) [(−) FPMH]
- first order half-life ([6]; fluroxypyr methylheptyl ester): 13.1 min

SMILES: CCCCC(O)(Cn1cncn1)c1ccc(Cl)cc1Cl (single isomer, unassigned; (-)) [(−)-hexaconazole]
- individual first order degradation rate constant [7]: 0.06804 min⁻¹

SMILES: CCCCC(C#N)(Cn1cncn1)c1ccc(Cl)cc1 (single isomer, unassigned; (-)) [(−)-myclobutanil]
- individual first order rate constant [6]: 0.046 h⁻¹

SMILES: CC(C)(C)[C@@H](O)[C@@H](Cc1ccc(Cl)cc1)n1cncn1 [(2R, 3R)-paclobutraz]
- individual first order degradation rate constant [8]: 0.0373 min⁻¹

SMILES: CC(C)(C)[C@H](O)[C@H](Cc1ccc(Cl)cc1)n1cncn1 [(2S, 3S)-paclobutrazol]
- individual first order degradation rate constant [8]: 0.0634 min⁻¹

SMILES: COCC(=O)N(c1c(C)cccc1C)[C@@H](C)C(=O)OC [(+)-S-MX]
- individual degradation constant [9]: 0.0864 min⁻¹
- half-life [10]: 7.71 min

SMILES: COC(=O)[C@@H](C)Oc1ccc(Oc2ccc(Cl)cc2Cl)cc1 [(R)-DM]
- individual first order degradation rate constant [11]: 0.0346 min⁻¹

SMILES: COC(=O)[C@H](C)Oc1ccc(Oc2ccc(Cl)cc2Cl)cc1 [(S)-DM]
- individual first order degradation rate constant [11]: 0.1904 min⁻¹

SMILES: COCC(=O)N(c1c(C)cccc1C)[C@H](C)C(=O)OC [(−)-R-MX]
- individual degradation constant [9]: 0.0415 min⁻¹
- half-life [10]: 15.58 min

SMILES: CCOC1Oc2ccc(OS(C)(=O)=O)cc2C1(C)C (stereo not drawn) [ETO, ethofumesate]
- enantiomeric enrichment factor ([12]; ETO, reconstructed from concentration–time curves of Fig. 2 in ref 53, R^2 = 0.96): −75 ± 11%

SMILES: COCC(=O)N(c1c(C)cccc1C)C(C)C(=O)OC (stereo not drawn) [metalaxyl]
- Enantiomeric enrichment factor, εER ([9]; reconstructed from data of Fig. 3a in ref 22, R^2 = 0.94): −78 ± 14%

SMILES: CCCCC(C#N)(Cn1cncn1)c1ccc(Cl)cc1 (stereo not drawn) [myclobutanil]
- enantiomeric enrichment factor ([13]; rabbit brain, from Fig. 3 in ref 26, R^2 = 0.97): −20 ± 6
- enantiomeric enrichment factor ([13]; rabbit kidney, from Fig. 3 in ref 26, R^2 = 0.89): −32 ± 16
- enantiomeric enrichment factor ([13]; rabbit liver, from Fig. 3 in ref 26, R^2 = 0.92): −33 ± 16
- enantiomeric enrichment factor ([13]; rabbit muscle, from Fig. 3 in ref 26, R^2 = 0.97): −21 ± 6
- enantiomeric enrichment factor ([13]; rabbit plasma, intravenous racemate, from Fig. 1A in ref 26, R^2 = 0.97): −28 ± 5
- decay kinetics / adherence to the Rayleigh law ([13]; rabbits' hearts and fats, data of ref 26): does not follow linear kinetics
- enantiomeric enrichment factor ([12]; myclobutanil, reconstructed from Fig. 3a in ref 52, R^2 = 0.97): −24 ± 2%
